Legend:
[1] = system: crabgrass, large; assay: Test A postemergence; format: in vivo, Digitaria sanguinalis
Excerpt: (§1) Seeds of plant species selected from barnyardgrass (Echinochloa crus-galli), kochia (Kochia scoparia), common ragweed (Ambrosia elation), Italian ryegrass (Lolium multiflorum), crabgrass, large (large crabgrass, Digitaria sanguinalis), foxtail, giant (giant foxtail, Setaria faberii), morningglory (Ipomoea spp.), pigweed (redroot pigweed, Amaranthus retroflexus), velvetleaf (Abutilon theophrasti), wheat (Triticum aestivum), and corn (Zea mays) were planted into a blend of loam soil and sand and treated preemergence with a directed soil spray using test chemicals formulated in a non-phytotoxic solvent mixture which included a surfactant.
(§2) At the same time, plants selected from these crop and weed species and also blackgrass (Alopecurus myosuroides), and galium (catchweed bedstraw, Galium aparine) were planted in pots containing the same blend of loam soil and sand and treated with postemergence applications of test chemicals formulated in the same manner. Plants ranged in height from 2 to 10 cm and were in the one- to two-leaf stage for the postemergence treatment. Treated plants and untreated controls were maintained in a greenhouse for approximately 10 days, after which time all treated plants were compared to untreated controls and visually evaluated for injury. Plant response ratings, summarized in Table A, are based on a 0 to 100 scale where 0 is no effect and 100 is complete control. A dash (-) response means no test result.

[2] = system: foxtail, giant; assay: Test A preemergence; format: in vivo, Setaria faberii; conditions: 0 to 100 scale
Excerpt: as §1, §2

[3] = system: wheat; assay: Test A postemergence; format: in vivo, Triticum aestivum
Excerpt: as §1, §2

[4] = system: pigweed; assay: Test A preemergence; format: in vivo, Amaranthus retroflexus; conditions: 0 to 100 scale
Excerpt: as §1, §2

[5] = system: barnyardgrass; assay: Test A preemergence; format: in vivo, Echinochloa crus-galli; conditions: 0 to 100 scale
Excerpt: as §1, §2

[6] = system: corn; assay: Test A preemergence; format: in vivo, Zea mays; conditions: 0 to 100 scale
Excerpt: as §1, §2

[7] = system: wheat; assay: Test A preemergence; format: in vivo, Triticum aestivum; conditions: 0 to 100 scale
Excerpt: as §1, §2

[8] = system: morningglory; assay: Test A preemergence; format: in vivo, Ipomoea spp.; conditions: 0 to 100 scale
Excerpt: as §1, §2

[9] = system: pigweed; assay: Test A postemergence; format: in vivo, Amaranthus retroflexus
Excerpt: as §1, §2

[10] = system: crabgrass, large; assay: Test A preemergence; format: in vivo, Digitaria sanguinalis; conditions: 0 to 100 scale
Excerpt: as §1, §2

[11] = system: velvetleaf; assay: Test A postemergence; format: in vivo, Abutilon theophrasti
Excerpt: as §1, §2

[12] = system: morningglory; assay: Test A postemergence; format: in vivo, Ipomoea spp.
Excerpt: as §1, §2

[13] = system: corn; assay: Test A postemergence; format: in vivo, Zea mays
Excerpt: as §1, §2

[14] = system: foxtail, giant; assay: Test A postemergence; format: in vivo, Setaria faberii
Excerpt: as §1, §2

[15] = system: barnyardgrass; assay: Test A postemergence; format: in vivo, Echinochloa crus-galli; conditions: Postemergence
Excerpt: as §1, §2

[16] = system: velvetleaf; assay: Test A preemergence; format: in vivo, Abutilon theophrasti; conditions: 0 to 100 scale
Excerpt: as §1, §2

[17] = Postemergence, 500 g ai/ha, visual rating after approx. 10 days, 0 to 100 scale (0 no effect, 100 complete control)
[18] = postemergence, 125 g ai/ha, about 10 days, visual rating on 0 to 100 scale (0 no effect, 100 complete control)
[19] = Preemergence, 500 g ai/ha, 0 no effect, 100 complete control
[20] = preemergence, 125 g ai/ha, visual injury, approx. 10 days
[21] = 125 g ai/ha, 0 to 100 scale, 0 no effect, 100 complete control
[22] = 500 g ai/ha, visual rating after approx. 10 days, 0 to 100 scale (0 no effect, 100 complete control)
[23] = Postemergence, 1000 g ai/ha, visual rating after approx. 10 days, 0 to 100 scale (0 no effect, 100 complete control)
[24] = Preemergence, 1000 g ai/ha, 0 no effect, 100 complete control
[25] = 1000 g ai/ha, visual rating after approx. 10 days, 0 to 100 scale (0 no effect, 100 complete control)
[26] = Postemergence, 125 g ai/ha, 0 to 100 scale, 0 no effect, 100 complete control

Compound | Crabgrass, Large plant response rating [1, 17] | Crabgrass, Large plant response rating [1, 18] | Foxtail, Giant plant response rating [2, 19] | Wheat plant response rating [3, 17] | Wheat plant response rating [3, 18] | Pigweed plant response rating [4, 19] | Barnyardgrass plant response rating [5, 19] | Barnyardgrass plant response rating [5, 20] | Corn plant response rating [6, 20] | Wheat plant response rating [7, 20] | Morningglory plant response rating [8, 19] | Morningglory plant response rating [8, 20] | Pigweed plant response rating [9, 17] | Pigweed plant response rating [9, 18] | Velvetleaf plant response rating [11, 17] | Morningglory plant response rating [12, 17] | Morningglory plant response rating [12, 18] | Corn plant response rating [13, 17] | Corn plant response rating [13, 18] | Foxtail, Giant plant response rating [14, 17] | also measured
Cc1cc(C(=O)NCC(F)(F)C(F)(F)F)nn1Cc1cccc(C(F)(F)F)c1 [Compound 8] | 20 | 10 | 0 | 0 | 0 | 10 | 0 | 0 | 0 | 0 | 0 | 0 | 40 | 10 | 10 | 100 | 80 | 0 | 0 | 20 | Foxtail, Giant plant response rating [2, 20]: 0; Pigweed plant response rating [4, 20]: 0; Corn plant response rating [6, 19]: 0; Crabgrass, Large plant response rating [10, 19]: 0; Crabgrass, Large plant response rating [10, 20]: 0; Foxtail, Giant plant response rating [14, 18]: 10; Barnyardgrass plant response rating [15, 21]: 0; Barnyardgrass plant response rating [15, 22]: 10; Velvetleaf plant response rating [16, 19]: 0; Velvetleaf plant response rating [16, 20]: 0
Cc1cc(C(=O)NC2CC2)nn1Cc1ccc(F)c(C(F)(F)F)c1 [Compound 11] | 40 | 20 | 60 | 0 | 0 | 100 | 50 | 10 | 0 | 0 | 30 | 10 | 100 | 60 | 40 | 80 | 70 | 20 | 0 | 30 | Foxtail, Giant plant response rating [2, 20]: 20; Pigweed plant response rating [4, 20]: 60; Corn plant response rating [6, 19]: 0; Crabgrass, Large plant response rating [10, 19]: 90; Crabgrass, Large plant response rating [10, 20]: 60; Velvetleaf plant response rating [11, 18]: 30; Foxtail, Giant plant response rating [14, 18]: 10; Barnyardgrass plant response rating [15, 21]: 0; Barnyardgrass plant response rating [15, 22]: 10; Velvetleaf plant response rating [16, 19]: 20; Velvetleaf plant response rating [16, 20]: 0
Cc1cc(C(=O)NCC(F)(F)F)nn1Cc1ccc(F)c(C(F)(F)F)c1 [Compound 12] | 50 | 30 | 60 | 0 | 0 | 100 | 30 | 0 | 0 | 0 | 10 | 0 | 100 | 80 | 50 | 90 | 50 | 20 | 10 | 30 | Foxtail, Giant plant response rating [2, 20]: 10; Pigweed plant response rating [4, 20]: 70; Corn plant response rating [6, 19]: 0; Crabgrass, Large plant response rating [10, 19]: 60; Crabgrass, Large plant response rating [10, 20]: 40; Velvetleaf plant response rating [11, 18]: 40; Foxtail, Giant plant response rating [14, 18]: 20; Barnyardgrass plant response rating [15, 21]: 10; Barnyardgrass plant response rating [15, 22]: 20; Velvetleaf plant response rating [16, 19]: 0; Velvetleaf plant response rating [16, 20]: 0
Cc1cc(C(=O)NC2CC2)nn1Cc1cc(F)cc(C(F)(F)F)c1 [Compound 14] | 40 | 20 | 90 | 0 | 0 | 100 | 10 | 0 | 0 | 0 | 20 | 0 | 70 | 50 | 30 | 80 | 50 | 10 | 0 | 20 | Foxtail, Giant plant response rating [2, 20]: 10; Pigweed plant response rating [4, 20]: 100; Corn plant response rating [6, 19]: 0; Crabgrass, Large plant response rating [10, 19]: 90; Crabgrass, Large plant response rating [10, 20]: 10; Velvetleaf plant response rating [11, 18]: 20; Foxtail, Giant plant response rating [14, 18]: 0; Barnyardgrass plant response rating [15, 21]: 0; Barnyardgrass plant response rating [15, 22]: 10; Velvetleaf plant response rating [16, 19]: 0; Velvetleaf plant response rating [16, 20]: 0
CCNC(=O)c1cc(CC)n(Cc2cccc(C(F)(F)F)c2)n1 [Compound 17] | – | – | – | – | – | – | – | – | – | – | – | – | – | – | – | – | – | – | – | – | Crabgrass, Large plant response rating [1, 23]: 90; Foxtail, Giant plant response rating [2, 24]: 100; Wheat plant response rating [3, 23]: 30; Pigweed plant response rating [4, 24]: 100; Barnyardgrass plant response rating [5, 24]: 80; Corn plant response rating [6, 24]: 10; Wheat plant response rating [7, 24]: 20; Morningglory plant response rating [8, 24]: 80; Pigweed plant response rating [9, 23]: 90; Crabgrass, Large plant response rating [10, 24]: 100; Velvetleaf plant response rating [11, 23]: 100; Morningglory plant response rating [12, 23]: 100; Corn plant response rating [13, 23]: 40; Foxtail, Giant plant response rating [14, 23]: 90; Barnyardgrass plant response rating [15, 25]: 40; Velvetleaf plant response rating [16, 24]: 100
Cc1cc(C(=O)NC2CC2)nn1Cc1cccc(OC(F)(F)F)c1 [Compound 21] | 80 | 30 | 100 | 10 | 0 | 100 | 90 | 0 | 0 | 0 | 40 | 0 | 100 | 90 | 40 | 90 | 80 | 50 | 10 | 50 | Velvetleaf plant response rating [11, 18]: 0; Foxtail, Giant plant response rating [14, 18]: 20; Barnyardgrass plant response rating [15, 21]: 0; Barnyardgrass plant response rating [15, 22]: 60; Velvetleaf plant response rating [16, 19]: 50
CCc1cc(C(=O)NCCC(F)(F)F)nn1Cc1cccc(C(F)(F)F)c1 [Compound 51] | – | – | – | – | – | – | – | – | – | – | – | – | – | – | – | – | – | – | – | – | Crabgrass, Large plant response rating [1, 23]: 30; Foxtail, Giant plant response rating [2, 24]: 80; Wheat plant response rating [3, 23]: 20; Pigweed plant response rating [4, 24]: 10; Barnyardgrass plant response rating [5, 24]: 10; Wheat plant response rating [7, 24]: 0; Morningglory plant response rating [8, 24]: 10; Pigweed plant response rating [9, 23]: 50; Crabgrass, Large plant response rating [10, 24]: 20; Velvetleaf plant response rating [11, 23]: 100; Morningglory plant response rating [12, 23]: 100; Corn plant response rating [13, 23]: 10; Foxtail, Giant plant response rating [14, 23]: 10; Barnyardgrass plant response rating [15, 25]: 10; Velvetleaf plant response rating [16, 24]: 0
O=C(NCC(F)(F)F)c1cc(CCCl)n(Cc2ccnc(C(F)(F)F)c2)n1 [Compound 193] | – | – | – | – | – | – | – | – | – | – | – | – | – | – | – | – | – | – | – | – | Wheat plant response rating [3, 26]: 0; Pigweed plant response rating [9, 26]: 100; Velvetleaf plant response rating [11, 26]: 70; Morningglory plant response rating [12, 26]: 80

Reference: US20150105252A1, “SUBSTITUTED PYRAZOLES AS HERBICIDES” (E I DU PONT DE NEMOURS AND COMPANY, priority 2013, published 2015)
